Values joined by “and” are separate entries in the source; they are usually repeats but may differ in a detail not shown here. Equal entries are not always repeated.
Experiments:
Assay type in all cases: biochemical
Conditions in all cases: for HDAC Activity (Fluorescent counts): Repeat1/Repeat 2
HDAC2 = target: T1, HDAC2 (Homo sapiens, UniProt Q92769); test: In vitro HDAC profiling (deacetylation assay), HDAC2
T1 construct: purchased BPS Bioscience #50051-11
Protocol: (§1) HDAC profiling was performed at BPS Bioscience (San Diego, CA). All of the compounds are dissolved in DMSO. A series of dilutions of the compounds were prepared with 10% DMSO in HDAC assay buffer (#50031) and 5 µl of the dilution was added to a 50 µl reaction so that the final concentration of DMSO is 1% in all of reactions. All of the enzymatic reactions were conducted in duplicate at 37 °C for 30 mins, except that the enzyme reactions for HDAC11 were at room temperature for 3 hrs. All of the reactions were performed in a 50 µl mixture containing HDAC assay buffer, 5 µg BSA, an HDAC substrate [HDAC Substrate 3 (BPS number 50037) or HDAC Class 2a Substrate 1 (BPS number 50040)], an HDAC enzyme (#50051-11) and a test compound. After enzymatic reactions, 50 μl of HDAC Developer (#50030) was added to each well and the plate was incubated at room temperature for an additional 20 mins. Fluorescence intensity was measured at an excitation of 360 nm and an emission of 460 nm using a Tecan Infinite M1000 microplate reader. HDAC activity assays were performed in duplicates at each concentration. The fluorescent intensity data were analyzed using the computer software, Graphpad Prism. In the absence of the compound, the fluorescent intensity (Ft) in each data set was defined as 100% activity. In the absence of HDAC, the fluorescent intensity (Fb) in each data set was defined as 0% activity. The percent activity in the presence of each compound was calculated according to the following equation: %activity = (F − Fb)/(Ft − Fb), where F = the fluorescent intensity in the presence of the compound. The values of % activity versus a series of compound concentrations were then plotted using non-linear regression analysis of Sigmoidal dose-response curve generated with the equation Y = B + (T − B)/1 + 10((LogIC50 − X) × Hill Slope), where Y = percent activity, B = minimum percent activity, T = maximum percent activity, X = logarithm of compound and Hill Slope = slope factor or Hill coefficient. The IC50 value was determined by the concentration causing a half-maximal percent activity.

HDAC9 = target: T2, HDAC9 (Homo sapiens, UniProt Q9UKV0); test: In vitro HDAC profiling (deacetylation assay), HDAC9
T2 construct: purchased BPS Bioscience #50051-11
Protocol: as §1

HDAC3/NCOR2 = target: T3, HDAC3/NCOR2 (Homo sapiens, UniProt O15379); test: In vitro HDAC profiling (deacetylation assay), HDAC3
T3 construct: purchased BPS Bioscience #50051-11
Protocol: as §1

HDAC4 = target: T4, HDAC4 (Homo sapiens, UniProt P56524); test: In vitro HDAC profiling (deacetylation assay), HDAC4
T4 construct: purchased BPS Bioscience #50051-11
Protocol: as §1

HDAC1 = target: T5, HDAC1 (Homo sapiens, UniProt Q13547); test: In vitro HDAC profiling (deacetylation assay), HDAC1
T5 construct: purchased BPS Bioscience #50051-11
Protocol: as §1

HDAC8 = target: T6, HDAC8 (Homo sapiens, UniProt Q9BY41); test: In vitro HDAC profiling (deacetylation assay), HDAC8
T6 construct: purchased BPS Bioscience #50051-11
T6 sequence (Q9BY41 1-377): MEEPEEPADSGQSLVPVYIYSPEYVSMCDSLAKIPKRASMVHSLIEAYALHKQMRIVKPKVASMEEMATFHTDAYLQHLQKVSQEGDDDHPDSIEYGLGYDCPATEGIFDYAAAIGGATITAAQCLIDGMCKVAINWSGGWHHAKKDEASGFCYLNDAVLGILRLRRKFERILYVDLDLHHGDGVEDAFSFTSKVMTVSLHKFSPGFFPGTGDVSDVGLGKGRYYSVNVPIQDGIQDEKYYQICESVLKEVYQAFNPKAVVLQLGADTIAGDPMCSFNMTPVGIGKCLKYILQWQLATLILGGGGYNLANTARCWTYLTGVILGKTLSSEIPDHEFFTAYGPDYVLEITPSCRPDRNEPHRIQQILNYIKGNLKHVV
Protocol: as §1

[1] = in vitro deacetylation assay, duplicates

T2 sequence (Q9UKV0 whole entry): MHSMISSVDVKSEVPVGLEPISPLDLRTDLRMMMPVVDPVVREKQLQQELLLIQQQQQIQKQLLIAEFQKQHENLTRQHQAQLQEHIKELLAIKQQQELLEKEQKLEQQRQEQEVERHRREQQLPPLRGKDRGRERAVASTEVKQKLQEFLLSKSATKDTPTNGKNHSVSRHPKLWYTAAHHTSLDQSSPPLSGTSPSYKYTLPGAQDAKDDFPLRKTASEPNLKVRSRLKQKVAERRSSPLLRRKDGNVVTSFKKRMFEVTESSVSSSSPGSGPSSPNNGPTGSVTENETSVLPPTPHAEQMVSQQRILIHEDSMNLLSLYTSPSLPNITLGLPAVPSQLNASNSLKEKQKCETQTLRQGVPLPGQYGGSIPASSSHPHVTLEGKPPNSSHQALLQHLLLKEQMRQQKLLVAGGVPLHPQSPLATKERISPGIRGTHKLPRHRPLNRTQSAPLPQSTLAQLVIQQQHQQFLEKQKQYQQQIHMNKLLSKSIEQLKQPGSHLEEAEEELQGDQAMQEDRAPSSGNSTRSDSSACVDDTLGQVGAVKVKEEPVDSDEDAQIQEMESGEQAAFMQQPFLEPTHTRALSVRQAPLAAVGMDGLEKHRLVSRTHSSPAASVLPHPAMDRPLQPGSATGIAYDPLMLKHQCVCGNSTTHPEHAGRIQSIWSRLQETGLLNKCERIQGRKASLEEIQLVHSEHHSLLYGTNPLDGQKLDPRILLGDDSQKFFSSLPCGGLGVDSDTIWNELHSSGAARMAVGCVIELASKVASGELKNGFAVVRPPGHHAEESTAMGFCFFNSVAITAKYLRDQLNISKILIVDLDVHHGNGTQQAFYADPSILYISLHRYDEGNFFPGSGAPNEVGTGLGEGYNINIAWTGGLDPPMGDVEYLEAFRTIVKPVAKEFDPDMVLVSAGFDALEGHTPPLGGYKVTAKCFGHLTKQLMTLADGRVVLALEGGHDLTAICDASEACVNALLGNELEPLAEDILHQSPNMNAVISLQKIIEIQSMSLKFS
T3 sequence (O15379 whole entry): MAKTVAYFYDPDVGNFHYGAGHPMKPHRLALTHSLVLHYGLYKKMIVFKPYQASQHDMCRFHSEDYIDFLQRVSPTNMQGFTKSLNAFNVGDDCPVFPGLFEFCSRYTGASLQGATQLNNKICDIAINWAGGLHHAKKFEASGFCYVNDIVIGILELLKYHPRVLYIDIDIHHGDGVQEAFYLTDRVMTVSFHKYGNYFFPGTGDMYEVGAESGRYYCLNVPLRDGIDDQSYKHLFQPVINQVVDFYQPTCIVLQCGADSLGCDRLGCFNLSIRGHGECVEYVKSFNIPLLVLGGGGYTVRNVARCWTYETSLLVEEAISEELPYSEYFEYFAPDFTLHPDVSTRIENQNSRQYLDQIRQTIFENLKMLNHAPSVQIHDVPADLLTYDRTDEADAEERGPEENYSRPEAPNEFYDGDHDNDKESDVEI
T3 sequence (Q9Y618 395-489 partner limits assumed): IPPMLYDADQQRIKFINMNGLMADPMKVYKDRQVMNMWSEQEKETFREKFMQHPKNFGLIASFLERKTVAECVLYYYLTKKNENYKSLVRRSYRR
T5 sequence (Q13547 whole entry): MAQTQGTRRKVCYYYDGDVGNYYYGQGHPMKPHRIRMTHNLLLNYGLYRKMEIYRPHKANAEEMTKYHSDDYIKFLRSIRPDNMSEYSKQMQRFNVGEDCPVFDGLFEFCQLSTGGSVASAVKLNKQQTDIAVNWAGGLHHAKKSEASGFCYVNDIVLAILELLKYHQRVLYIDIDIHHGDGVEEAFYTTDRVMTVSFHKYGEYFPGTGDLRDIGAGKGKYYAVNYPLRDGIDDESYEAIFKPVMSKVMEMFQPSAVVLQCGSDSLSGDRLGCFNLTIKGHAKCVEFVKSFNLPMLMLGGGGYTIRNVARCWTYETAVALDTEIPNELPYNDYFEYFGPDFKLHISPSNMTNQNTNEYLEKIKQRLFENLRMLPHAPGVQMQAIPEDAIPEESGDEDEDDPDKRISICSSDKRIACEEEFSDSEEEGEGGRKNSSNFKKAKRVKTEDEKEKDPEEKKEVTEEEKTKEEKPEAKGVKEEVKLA
T4 sequence (P56524 whole entry): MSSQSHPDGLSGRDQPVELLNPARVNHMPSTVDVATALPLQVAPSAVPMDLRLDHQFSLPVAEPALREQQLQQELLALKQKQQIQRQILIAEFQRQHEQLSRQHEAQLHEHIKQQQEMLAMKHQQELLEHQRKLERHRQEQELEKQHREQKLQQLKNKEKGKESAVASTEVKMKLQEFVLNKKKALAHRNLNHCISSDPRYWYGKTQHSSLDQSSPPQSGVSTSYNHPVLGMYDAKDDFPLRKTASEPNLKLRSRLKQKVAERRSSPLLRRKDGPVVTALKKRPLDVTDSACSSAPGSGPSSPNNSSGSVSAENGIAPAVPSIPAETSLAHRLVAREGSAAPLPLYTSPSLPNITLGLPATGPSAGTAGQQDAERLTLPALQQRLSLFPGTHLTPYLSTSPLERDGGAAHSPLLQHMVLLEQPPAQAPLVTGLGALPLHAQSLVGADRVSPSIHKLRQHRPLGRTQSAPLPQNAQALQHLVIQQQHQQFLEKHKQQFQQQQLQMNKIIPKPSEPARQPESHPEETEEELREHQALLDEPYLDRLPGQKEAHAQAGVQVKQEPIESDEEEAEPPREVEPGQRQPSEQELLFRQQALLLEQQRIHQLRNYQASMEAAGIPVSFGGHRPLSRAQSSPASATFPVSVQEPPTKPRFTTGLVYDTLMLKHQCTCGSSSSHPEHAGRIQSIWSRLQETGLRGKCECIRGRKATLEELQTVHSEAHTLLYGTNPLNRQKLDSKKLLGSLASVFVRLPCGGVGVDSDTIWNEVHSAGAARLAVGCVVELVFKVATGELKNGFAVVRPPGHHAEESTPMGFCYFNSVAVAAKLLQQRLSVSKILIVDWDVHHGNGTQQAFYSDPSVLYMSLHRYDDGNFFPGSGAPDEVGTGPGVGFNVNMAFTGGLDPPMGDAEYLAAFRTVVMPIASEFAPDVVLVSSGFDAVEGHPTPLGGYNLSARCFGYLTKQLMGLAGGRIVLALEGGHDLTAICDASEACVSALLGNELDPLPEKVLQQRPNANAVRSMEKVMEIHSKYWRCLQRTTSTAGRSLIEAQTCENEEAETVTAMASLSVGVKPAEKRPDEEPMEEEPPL
T1 sequence (Q92769 whole entry): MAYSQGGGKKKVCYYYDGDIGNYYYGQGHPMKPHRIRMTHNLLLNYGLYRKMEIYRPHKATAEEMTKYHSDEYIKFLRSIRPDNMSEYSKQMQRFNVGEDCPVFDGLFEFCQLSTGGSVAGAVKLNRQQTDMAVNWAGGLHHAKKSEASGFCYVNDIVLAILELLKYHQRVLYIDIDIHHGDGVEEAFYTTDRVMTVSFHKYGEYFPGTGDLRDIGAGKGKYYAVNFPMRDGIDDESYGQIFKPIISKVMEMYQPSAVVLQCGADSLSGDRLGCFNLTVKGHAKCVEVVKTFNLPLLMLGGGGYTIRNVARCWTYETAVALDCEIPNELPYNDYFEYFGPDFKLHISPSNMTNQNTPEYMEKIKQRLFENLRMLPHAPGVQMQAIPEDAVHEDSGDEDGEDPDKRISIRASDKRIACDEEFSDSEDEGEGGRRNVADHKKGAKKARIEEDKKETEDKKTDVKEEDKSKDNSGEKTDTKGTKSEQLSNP

SMILES: O=C(CCCCCCC(=O)Nc1ccc(Cl)c(C(=O)Nc2ccc(NC(=O)c3cc(Cl)ccc3Cl)cc2)c1)NO [IHR-SAHA]
- HDAC Activity (Fluorescent counts) (HDAC2; HDAC2, WW01 0 Log nM): 25941 Fluorescent counts and 27493 Fluorescent counts
- HDAC Activity (Fluorescent counts) (HDAC2; HDAC2, WW01 0.5 Log nM): 25227 Fluorescent counts and 26727 Fluorescent counts
- HDAC Activity (Fluorescent counts) (HDAC2; HDAC2, WW01 1 Log nM): 25275 Fluorescent counts and 25129 Fluorescent counts
- HDAC Activity (Fluorescent counts) (HDAC2; HDAC2, WW01 1.5 Log nM): 23536 Fluorescent counts and 23240 Fluorescent counts
- HDAC Activity (Fluorescent counts) (HDAC2; HDAC2, WW01 2 Log nM): 22337 Fluorescent counts and 21686 Fluorescent counts
- HDAC Activity (Fluorescent counts) (HDAC2; HDAC2, WW01 2.5 Log nM): 18050 Fluorescent counts and 16002 Fluorescent counts
- HDAC Activity (Fluorescent counts) (HDAC2; HDAC2, WW01 3 Log nM): 12392 Fluorescent counts and 11718 Fluorescent counts
- HDAC Activity (Fluorescent counts) (HDAC2; HDAC2, WW01 3.5 Log nM): 9603 Fluorescent counts and 9800 Fluorescent counts
- HDAC Activity (Fluorescent counts) (HDAC2; HDAC2, WW01 4 Log nM): 7673 Fluorescent counts and 7404 Fluorescent counts
- HDAC Activity (Fluorescent counts) (HDAC2; HDAC2, WW01 -0.5 Log nM): 26601 Fluorescent counts and 28049 Fluorescent counts
- IC50 (HDAC2; [1]): 746 nM
- HDAC Activity (Fluorescent counts) (HDAC9; HDAC9, WW01 0 Log nM): 15707 Fluorescent counts and 17505 Fluorescent counts
- HDAC Activity (Fluorescent counts) (HDAC9; HDAC9, WW01 0.5 Log nM): 15735 Fluorescent counts and 16677 Fluorescent counts
- HDAC Activity (Fluorescent counts) (HDAC9; HDAC9, WW01 1 Log nM): 15823 Fluorescent counts and 16968 Fluorescent counts
- HDAC Activity (Fluorescent counts) (HDAC9; HDAC9, WW01 1.5 Log nM): 15598 Fluorescent counts and 16390 Fluorescent counts
- HDAC Activity (Fluorescent counts) (HDAC9; HDAC9, WW01 2 Log nM): 15941 Fluorescent counts and 16116 Fluorescent counts
- HDAC Activity (Fluorescent counts) (HDAC9; HDAC9, WW01 2.5 Log nM): 14685 Fluorescent counts and 15111 Fluorescent counts
- HDAC Activity (Fluorescent counts) (HDAC9; HDAC9, WW01 3 Log nM): 14898 Fluorescent counts and 14972 Fluorescent counts
- HDAC Activity (Fluorescent counts) (HDAC9; HDAC9, WW01 3.5 Log nM): 13364 Fluorescent counts and 15040 Fluorescent counts
- HDAC Activity (Fluorescent counts) (HDAC9; HDAC9, WW01 4 Log nM): 14972 Fluorescent counts and 13303 Fluorescent counts
- HDAC Activity (Fluorescent counts) (HDAC9; HDAC9, WW01 -0.5 Log nM): 15619 Fluorescent counts and 16563 Fluorescent counts
- IC50 (HDAC9; [1]): > 10000 nM
- HDAC Activity (Fluorescent counts) (HDAC3/NCOR2; HDAC3/NCOR2, WW01 0 Log nM): 24959 Fluorescent counts and 25571 Fluorescent counts
- HDAC Activity (Fluorescent counts) (HDAC3/NCOR2; HDAC3/NCOR2, WW01 0.5 Log nM): 24611 Fluorescent counts and 25823 Fluorescent counts
- HDAC Activity (Fluorescent counts) (HDAC3/NCOR2; HDAC3/NCOR2, WW01 1 Log nM): 23771 Fluorescent counts and 23666 Fluorescent counts
- HDAC Activity (Fluorescent counts) (HDAC3/NCOR2; HDAC3/NCOR2, WW01 1.5 Log nM): 20712 Fluorescent counts and 23164 Fluorescent counts
- HDAC Activity (Fluorescent counts) (HDAC3/NCOR2; HDAC3/NCOR2, WW01 2 Log nM): 15438 Fluorescent counts and 15968 Fluorescent counts
- HDAC Activity (Fluorescent counts) (HDAC3/NCOR2; HDAC3/NCOR2, WW01 2.5 Log nM): 10185 Fluorescent counts and 10772 Fluorescent counts
- HDAC Activity (Fluorescent counts) (HDAC3/NCOR2; HDAC3/NCOR2, WW01 3 Log nM): 6354 Fluorescent counts and 6385 Fluorescent counts
- HDAC Activity (Fluorescent counts) (HDAC3/NCOR2; HDAC3/NCOR2, WW01 3.5 Log nM): 4726 Fluorescent counts and 4835 Fluorescent counts
- HDAC Activity (Fluorescent counts) (HDAC3/NCOR2; HDAC3/NCOR2, WW01 4 Log nM): 3849 Fluorescent counts and 3671 Fluorescent counts
- HDAC Activity (Fluorescent counts) (HDAC3/NCOR2; HDAC3/NCOR2, WW01 -0.5 Log nM): 25301 Fluorescent counts and 26608 Fluorescent counts
- IC50 (HDAC3/NCOR2; [1]): 188 nM
- HDAC Activity (Fluorescent counts) (HDAC4; HDAC4, WW01 0 Log nM): 34281 Fluorescent counts and 35156 Fluorescent counts
- HDAC Activity (Fluorescent counts) (HDAC4; HDAC4, WW01 0.5 Log nM): 35257 Fluorescent counts and 33365 Fluorescent counts
- HDAC Activity (Fluorescent counts) (HDAC4; HDAC4, WW01 1 Log nM): 34132 Fluorescent counts and 32561 Fluorescent counts
- HDAC Activity (Fluorescent counts) (HDAC4; HDAC4, WW01 1.5 Log nM): 32307 Fluorescent counts and 33171 Fluorescent counts
- HDAC Activity (Fluorescent counts) (HDAC4; HDAC4, WW01 2 Log nM): 34170 Fluorescent counts and 33741 Fluorescent counts
- HDAC Activity (Fluorescent counts) (HDAC4; HDAC4, WW01 2.5 Log nM): 30594 Fluorescent counts and 30410 Fluorescent counts
- HDAC Activity (Fluorescent counts) (HDAC4; HDAC4, WW01 3 Log nM): 29955 Fluorescent counts and 29639 Fluorescent counts
- HDAC Activity (Fluorescent counts) (HDAC4; HDAC4, WW01 3.5 Log nM): 26541 Fluorescent counts and 27641 Fluorescent counts
- HDAC Activity (Fluorescent counts) (HDAC4; HDAC4, WW01 4 Log nM): 24902 Fluorescent counts and 23203 Fluorescent counts
- HDAC Activity (Fluorescent counts) (HDAC4; HDAC4, WW01 -0.5 Log nM): 34466 Fluorescent counts and 34397 Fluorescent counts
- IC50 (HDAC4; [1]): > 10000 nM
- HDAC Activity (Fluorescent counts) (HDAC1; HDAC1, WW01 0 Log nM): 31058 Fluorescent counts and 32831 Fluorescent counts
- HDAC Activity (Fluorescent counts) (HDAC1; HDAC1, WW01 0.5 Log nM): 31900 Fluorescent counts and 30926 Fluorescent counts
- HDAC Activity (Fluorescent counts) (HDAC1; HDAC1, WW01 1 Log nM): 29505 Fluorescent counts and 28223 Fluorescent counts
- HDAC Activity (Fluorescent counts) (HDAC1; HDAC1, WW01 1.5 Log nM): 27089 Fluorescent counts and 26820 Fluorescent counts
- HDAC Activity (Fluorescent counts) (HDAC1; HDAC1, WW01 2 Log nM): 21883 Fluorescent counts and 21225 Fluorescent counts
- HDAC Activity (Fluorescent counts) (HDAC1; HDAC1, WW01 2.5 Log nM): 19997 Fluorescent counts and 14409 Fluorescent counts
- HDAC Activity (Fluorescent counts) (HDAC1; HDAC1, WW01 3 Log nM): 9008 Fluorescent counts and 8923 Fluorescent counts
- HDAC Activity (Fluorescent counts) (HDAC1; HDAC1, WW01 3.5 Log nM): 7360 Fluorescent counts and 7292 Fluorescent counts
- HDAC Activity (Fluorescent counts) (HDAC1; HDAC1, WW01 4 Log nM): 6195 Fluorescent counts and 6043 Fluorescent counts
- HDAC Activity (Fluorescent counts) (HDAC1; HDAC1, WW01 -0.5 Log nM): 31660 Fluorescent counts and 32681 Fluorescent counts
- IC50 (HDAC1; [1]): 285 nM
- HDAC Activity (Fluorescent counts) (HDAC8; HDAC8, WW01 0 Log nM): 21093 Fluorescent counts and 21821 Fluorescent counts
- HDAC Activity (Fluorescent counts) (HDAC8; HDAC8, WW01 0.5 Log nM): 22364 Fluorescent counts and 22102 Fluorescent counts
- HDAC Activity (Fluorescent counts) (HDAC8; HDAC8, WW01 1 Log nM): 22562 Fluorescent counts and 22110 Fluorescent counts
- HDAC Activity (Fluorescent counts) (HDAC8; HDAC8, WW01 1.5 Log nM): 21528 Fluorescent counts and 20488 Fluorescent counts
- HDAC Activity (Fluorescent counts) (HDAC8; HDAC8, WW01 2 Log nM): 18696 Fluorescent counts and 20642 Fluorescent counts
- HDAC Activity (Fluorescent counts) (HDAC8; HDAC8, WW01 2.5 Log nM): 20242 Fluorescent counts and 19075 Fluorescent counts
- HDAC Activity (Fluorescent counts) (HDAC8; HDAC8, WW01 3 Log nM): 18387 Fluorescent counts and 19845 Fluorescent counts
- HDAC Activity (Fluorescent counts) (HDAC8; HDAC8, WW01 3.5 Log nM): 17109 Fluorescent counts and 19683 Fluorescent counts
- HDAC Activity (Fluorescent counts) (HDAC8; HDAC8, WW01 4 Log nM): 16686 Fluorescent counts and 18294 Fluorescent counts
- HDAC Activity (Fluorescent counts) (HDAC8; HDAC8, WW01 -0.5 Log nM): 19254 Fluorescent counts and 22456 Fluorescent counts
- IC50 (HDAC8; [1]): > 10000 nM
